Reference: ChEMBL document CHEMBL2380247, “Synthesis and biological evaluation of novel aliphatic amido-quaternary ammonium salts for anticancer chemotherapy: part II” (2013)
Active and inactive are the calls of the source. The calls are words filed in the database; no cut-off is given here.

Experiments:
PC-3 [1] = assay: Antiproliferative activity against human PC3 cells by SRB assay; format: functional
NCI-H23 [2] = assay: Antiproliferative activity against human NCI-H23 cells by SRB assay; format: functional
ACHN [3] = assay: Antiproliferative activity against human ACHN cells by SRB assay; format: functional
[4] = target: Rho-related GTP-binding protein RhoB (Homo sapiens) (UniProt P62745); assay: Transactivation of RhoB in human HeLa cells by luciferase reporter assay; format: cell-based
NUGC-3 [5] = assay: Antiproliferative activity against human NUGC3 cells by SRB assay; format: functional
MDA-MB-231 [6] = assay: Antiproliferative activity against human MDA-MB-231 cells by SRB assay; format: functional
NCI-H23 [7] = assay: Antiproliferative activity against human NCI-H23 cells at 10 uM by SRB assay; format: functional
NCI-H23 [8] = assay: Antiproliferative activity against human NCI-H23 cells at 3 uM by SRB assay; format: functional
NUGC-3 [9] = assay: Antiproliferative activity against human NUGC3 cells at 0.3 uM by SRB assay; format: functional
NUGC-3 [10] = assay: Antiproliferative activity against human NUGC3 cells at 3 uM by SRB assay; format: functional
ACHN [11] = assay: Antiproliferative activity against human ACHN cells at 0.3 uM by SRB assay; format: functional
HCT-15 [12] = assay: Antiproliferative activity against human HCT15 cells at 3 uM by SRB assay; format: functional
HCT-15 [13] = assay: Antiproliferative activity against human HCT15 cells at 1 uM by SRB assay; format: functional
HCT-15 [14] = assay: Antiproliferative activity against human HCT15 cells by SRB assay; format: functional
ACHN [15] = assay: Antiproliferative activity against human ACHN cells at 10 uM by SRB assay; format: functional
NUGC-3 [16] = assay: Antiproliferative activity against human NUGC3 cells at 1 uM by SRB assay; format: functional
MDA-MB-231 [17] = assay: Antiproliferative activity against human MDA-MB-231 cells at 0.3 uM by SRB assay; format: functional
HCT-15 [18] = assay: Antiproliferative activity against human HCT15 cells at 0.3 uM by SRB assay; format: functional
HCT-15 [19] = assay: Antiproliferative activity against human HCT15 cells at 0.1 uM by SRB assay; format: functional
ACHN [20] = assay: Antiproliferative activity against human ACHN cells at 1 uM by SRB assay; format: functional
NCI-H23 [21] = assay: Antiproliferative activity against human NCI-H23 cells at 0.3 uM by SRB assay; format: functional
PC-3 [22] = assay: Antiproliferative activity against human PC3 cells at 10 uM by SRB assay; format: functional
PC-3 [23] = assay: Antiproliferative activity against human PC3 cells at 0.1 uM by SRB assay; format: functional
MDA-MB-231 [24] = assay: Antiproliferative activity against human MDA-MB-231 cells at 10 uM by SRB assay; format: functional
PC-3 [25] = assay: Antiproliferative activity against human PC3 cells at 3 uM by SRB assay; format: functional
NCI-H23 [26] = assay: Antiproliferative activity against human NCI-H23 cells at 1 uM by SRB assay; format: functional
PC-3 [27] = assay: Antiproliferative activity against human PC3 cells at 1 uM by SRB assay; format: functional
NUGC-3 [28] = assay: Antiproliferative activity against human NUGC3 cells at 0.1 uM by SRB assay; format: functional
NCI-H23 [29] = assay: Antiproliferative activity against human NCI-H23 cells at 0.1 uM by SRB assay; format: functional
ACHN [30] = assay: Antiproliferative activity against human ACHN cells at 0.1 uM by SRB assay; format: functional
HCT-15 [31] = assay: Antiproliferative activity against human HCT15 cells at 10 uM by SRB assay; format: functional
MDA-MB-231 [32] = assay: Antiproliferative activity against human MDA-MB-231 cells at 0.1 uM by SRB assay; format: functional
NUGC-3 [33] = assay: Antiproliferative activity against human NUGC3 cells at 10 uM by SRB assay; format: functional
PC-3 [34] = assay: Antiproliferative activity against human PC3 cells at 0.3 uM by SRB assay; format: functional
ACHN [35] = assay: Antiproliferative activity against human ACHN cells at 3 uM by SRB assay; format: functional
MDA-MB-231 [36] = assay: Antiproliferative activity against human MDA-MB-231 cells at 3 uM by SRB assay; format: functional
MDA-MB-231 [37] = assay: Antiproliferative activity against human MDA-MB-231 cells at 1 uM by SRB assay; format: functional

Rho-related GTP-binding protein RhoB (Homo sapiens), sequence (P62745 whole entry): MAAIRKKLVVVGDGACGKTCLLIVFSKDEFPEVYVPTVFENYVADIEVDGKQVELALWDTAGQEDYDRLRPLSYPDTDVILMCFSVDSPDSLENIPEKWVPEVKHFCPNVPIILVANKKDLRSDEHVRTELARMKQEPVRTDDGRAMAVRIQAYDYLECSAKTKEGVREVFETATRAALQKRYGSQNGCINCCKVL

Structure (SMILES) | GI50 (PC-3 [1]) [nM] | GI50 (NCI-H23 [2]) [nM] | GI50 (ACHN [3]) [nM] | Activity [4] | GI50 (NUGC-3 [5]) [nM] | GI50 (MDA-MB-231 [6]) [nM] | growth, % of control at 10 µM (NCI-H23 [7]) [%] | growth, % of control at 3 µM (NCI-H23 [8]) [%] | growth, % of control at 0.3 µM (NUGC-3 [9]) [%] | growth, % of control at 3 µM (NUGC-3 [10]) [%] | growth, % of control at 0.3 µM (ACHN [11]) [%] | growth, % of control at 3 µM (HCT-15 [12]) [%] | growth, % of control at 1 µM (HCT-15 [13]) [%] | GI50 (HCT-15 [14]) [nM] | growth, % of control at 10 µM (ACHN [15]) [%] | growth, % of control at 1 µM (NUGC-3 [16]) [%] | growth, % of control at 0.3 µM (MDA-MB-231 [17]) [%] | growth, % of control at 0.3 µM (HCT-15 [18]) [%] | growth, % of control at 0.1 µM (HCT-15 [19]) [%] | growth, % of control at 1 µM (ACHN [20]) [%] | further results
C=CC[N+]1(CC)CCN(C(=O)CCCCCCCCCCCCCCC)CC1 | 370 | 880 | 500 | Active | 270 | 680 |  |  |  |  |  |  |  |  |  |  |  |  |  |  | 
CCCCCCCCCCCCCC(=O)NCC(C)(C)C[N+](C)(C)C | 510 | 1440 | 3120 | Active | 840 | 1310 | -26.6 | 48.3 | 104 | 16.2 | 96.2 | 92.5 | 97.9 | 3700 | 28.7 | 84.7 | 103 | 101 | 102 | 95.1 | growth, % of control at 0.3 µM (NCI-H23 [21]): 109%; growth, % of control at 10 µM (PC-3 [22]): -44.4%; growth, % of control at 0.1 µM (PC-3 [23]): 97.9%; growth, % of control at 10 µM (MDA-MB-231 [24]): -11%; growth, % of control at 3 µM (PC-3 [25]): -13%; growth, % of control at 1 µM (NCI-H23 [26]): 104%; growth, % of control at 1 µM (PC-3 [27]): 64.1%; growth, % of control at 0.1 µM (NUGC-3 [28]): 103%; growth, % of control at 0.1 µM (NCI-H23 [29]): 147%; growth, % of control at 0.1 µM (ACHN [30]): 94.5%; growth, % of control at 10 µM (HCT-15 [31]): 33.1%; growth, % of control at 0.1 µM (MDA-MB-231 [32]): 98.5%; growth, % of control at 10 µM (NUGC-3 [33]): -33.6%; growth, % of control at 0.3 µM (PC-3 [34]): 94.5%; growth, % of control at 3 µM (ACHN [35]): 83.8%; growth, % of control at 3 µM (MDA-MB-231 [36]): 44%; growth, % of control at 1 µM (MDA-MB-231 [37]): 90.2%
CCCCCCCCCCCCCCCCCC(=O)NCC(C)(C)C[N+](C)(C)C | 240 | 1710 | 2300 | Active | 450 | 1210 | 21.5 | 47.4 | 72.3 | 17.7 | 79.6 | 46 | 81.1 | 1730 | 45.8 | 46.7 | 78.8 | 91.8 | 97.1 | 71.3 | growth, % of control at 0.3 µM (NCI-H23 [21]): 95.3%; growth, % of control at 10 µM (PC-3 [22]): -47%; growth, % of control at 0.1 µM (PC-3 [23]): 84.1%; growth, % of control at 10 µM (MDA-MB-231 [24]): 26.8%; growth, % of control at 3 µM (PC-3 [25]): -38.6%; growth, % of control at 1 µM (NCI-H23 [26]): 86.3%; growth, % of control at 1 µM (PC-3 [27]): 11.9%; growth, % of control at 0.1 µM (NUGC-3 [28]): 79.4%; growth, % of control at 0.1 µM (NCI-H23 [29]): 97.1%; growth, % of control at 0.1 µM (ACHN [30]): 86.5%; growth, % of control at 10 µM (HCT-15 [31]): 27.5%; growth, % of control at 0.1 µM (MDA-MB-231 [32]): 78.5%; growth, % of control at 10 µM (NUGC-3 [33]): 26.4%; growth, % of control at 0.3 µM (PC-3 [34]): 76.1%; growth, % of control at 3 µM (ACHN [35]): 43.5%; growth, % of control at 3 µM (MDA-MB-231 [36]): 41.6%; growth, % of control at 1 µM (MDA-MB-231 [37]): 70.9%
